These results are taken from publication PMC9959130, “Effects of Side Chain and Peptide Bond Modifications on the Targeting Properties of Stabilized Minigastrin Analogs” (Pharmaceuticals, 2023).

Where a SMILES comes first, the peptide text is derived from it. [ ]: non-standard residue; d: D form. The star is where a group is joined. DOTA = O=C(O)CN1CCN(CC(=O)O)CCN(CC(=O)*)CCN(CC(=O)O)CC1; 1Nal = N[C@@H](Cc1cccc2ccccc12)C(=O)O; NMeNle = CCCC[C@H](NC)C(=O)O

A short description of data set [1]: Metabolic studies in BALB/c mice (intact radiopeptide by radio-HPLC). Format: in vivo. As to conditions: i.v., 2 nmol, 10 min p.i., two animals per peptide. How it is done:
All animal experiments were approved by the Austrian Ministry of Science (BMWF-66.011/0075- WF/V/3b/2016) and performed in accordance with the Austrian Animal Protection Act. Metabolic studies characterizing the stability of selected radioligands against enzymatic degradation were carried out in 7 to 8 week old female BALB/c mice (Charles River, Sulzfeld, Germany). The mice (two animals for each peptide) were intravenously injected into a lateral tail vein with 5–10 MBq of the ^111In-labeled peptide derivatives, corresponding to 2 nmol total peptide. At the time point of 10 min p.i. the animals were euthanatized by cervical dislocation. A sample of urine and blood was immediately collected. Liver and kidneys were dissected, mixed with 20 mM HEPES buffer pH 7.3 (1:1, w/v) and homogenized using an Ultra-Turrax T8 homogenizer (IKA-Werke, Staufen, Germany) for 1 min. All samples taken were analyzed by analytical HPLC using the low-sensitivity loop for urine and the high-sensitivity loop for blood, liver and kidney. Before injection into the HPLC system, all samples except urine were treated with ACN and diluted with water as described for stability studies in human serum. The percentage of intact radiopeptide in the analyzed samples was calculated by integration of the different peaks found in the radiochromatogram using Chromeleon Dionex Software (Version 7.2.9.11323).

For data set [2], the system named is A431-CCK2R and A431-mock xenografts. Briefly: Biodistribution in BALB/c nude mice bearing A431-CCK2R/A431-mock xenografts. The class given is in vivo. As to conditions: xenografted BALB/c nude mice, i.v., ~20 pmol, 4 h p.i. (indium-111 or lutetium-177), mean ± SD n = 4. The gist of the method: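 Female athymic BALB/c nude mice carrying subcutaneous A431-CCK2R and A431-mock tumors (~0.25 g) received ~20 pmol radiopeptide i.v. (150–200 kBq; ~0.5 MBq for gallium-68/lutetium-177 studies), n = 4. Tissues γ-counted at 1 h (gallium-68) or 4 h p.i. (indium-111/lutetium-177); expressed as % IA/g and tumor-to-organ ratios.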

The conditions of data set [3]: cited from earlier work. On the procedure: (−2.33 ± 0.23) > [^111In]In-DOTA-MGS5 (−2.0 ± 0.1) > [^111In]In-DOTA-[2Nal^8]MGS5 (−1.71 ± 0.19) > [^111In]In-DOTA-[DLys^1]MGS5 (−1.31 ± 0.11). […] For the time point of 24 h after incubation, lowest values were found for [^111In] ...
The target of another data set is T1, human CCK2R (Homo sapiens, UniProt P32239).
T1 construct: expressed in transfected cells; host or cells: A431 human epidermoid carcinoma cells, stably transfected (A431-CCK2R); originally provided by Dr. Luigi Aloj
T1 sequence (P32239 1-447): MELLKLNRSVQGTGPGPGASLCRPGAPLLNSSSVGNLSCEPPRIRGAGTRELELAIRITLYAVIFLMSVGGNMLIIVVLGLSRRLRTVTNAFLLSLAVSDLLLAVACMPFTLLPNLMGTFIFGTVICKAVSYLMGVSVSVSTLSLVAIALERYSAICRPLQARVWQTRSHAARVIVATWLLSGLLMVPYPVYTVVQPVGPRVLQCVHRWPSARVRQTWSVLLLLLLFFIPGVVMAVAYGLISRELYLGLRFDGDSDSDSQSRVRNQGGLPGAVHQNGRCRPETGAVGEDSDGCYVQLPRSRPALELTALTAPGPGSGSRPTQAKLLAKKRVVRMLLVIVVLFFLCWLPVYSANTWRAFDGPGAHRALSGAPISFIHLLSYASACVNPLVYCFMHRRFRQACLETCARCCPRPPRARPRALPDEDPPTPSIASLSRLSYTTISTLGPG
Briefly: Calcium mobilization assay (fluo-4 AM) on A431-CCK2R cells. Format: cell-based. The conditions noted are these: normalized to 10^−6 M pentagastrin, mean ± SEM of at least three independent experiments in triplicates. The text has this: A431 human epidermoid carcinoma cells overexpressing human CCK2R through stable transfection (A431-CCK2R) and the same cell line transfected with the empty vector (A431-mock) were used for cell assays. The cells are constantly available in our laboratory and were originally provided by Dr. Luigi Aloj. All cell culture media and reagents were obtained from Invitrogen Corporation (Lofer, Austria) or Sigma-Aldrich (Darmstadt, Germany). Dulbecco’s modified Eagle’s medium (DMEM) supplemented with 10% (v/v) fetal bovine serum and 1% of 100x penicillin−streptomycin−glutamine was used for cell culture. The cells were passaged three times per week using a 10x 2.5% trypsin-EDTA solution in a 1:2–1:3 ratio.
Analog-induced receptor activation was evaluated by a calcium mobilization assay using the calcium-sensitive dye fluo-4 AM (ThermoFisher Scientific, Montigny-Le-Bretonneux, France), as previously described. Briefly, A431-CCK2R cells were seeded (60,000/well) in flat clear bottom black 96-well plates (Corning, Bagneaux-sur-Loing, France) coated with poly-L-ornithine (100 µg/mL, 1 h, 37 °C) (Sigma Aldrich, Saint Quentin Fallavier, France). Cytosolic Ca^2+ variations were measured before and after application of 50 µL of graded concentrations of the investigated peptides in the vicinity of the cells, and the effects on Ca^2+ mobilization were measured. Data were background corrected and normalized for the amplitudes caused by the medium alone (0%, no self-effect) or 10^−6 M pentagastrin (100%, maximal Ca^2+ mobilization response). Prism 4.0 software was used to calculate the EC50 values and the results were expressed as mean ± SEM for at least three independent experiments performed in triplicates.

In the case of `CCCC[C@@H](C(=O)N[C@@H](CC(=O)O)C(=O)N[C@@H](Cc1cccc2ccccc12)C(N)=O)N(C)C(=O)[C@H](Cc1c[nH]c2ccccc12)NC(=O)CNC(=O)[C@H](Cc1ccc(O)cc1)NC(=O)[C@H](C)NC(=O)[C@@H](CCCCN)NC(=O)CN1CCN(CC(=O)O)CCN(CC(=O)O)CCN(CC(=O)O)CC1` [[^111In]In-DOTA-[DLys^1]MGS5] [metal not drawn] ({DOTA}-[dK]AYGW[NMeNle]D[1Nal]-NH2), the “Intact radiopeptide in kidney” value in data set [1] (kidney homogenate) is recorded as 20.6 ± 3.8%. Moreover, the “Intact radiopeptide in liver” value in data set [1] (liver homogenate) is on record as 82.5 ± 2.4%. Moreover, in data set [1], the “Intact radiopeptide in blood” value is reported as 93.9 ± 1.2% and the “Intact radiopeptide in urine” value is reported as 5.8 ± 0.2%. The compound further displayed an Uptake in kidneys in data set [2] of 20.67 ± 4.37 %IA/g.
As for `CCCC[C@@H](C(=O)N[C@@H](CC(=O)O)C(=O)N[C@@H](Cc1cccc2ccccc12)C(N)=O)N(C)C(=O)[C@H](Cc1c[nH]c2ccccc12)NC(=O)CNC(=O)[C@H](Cc1ccc(O)cc1)NC(=O)[C@H](C)NC(=O)[C@@H](CCC(=O)O)NC(=O)CN1CCN(CC(=O)O)CCN(CC(=O)O)CCN(CC(=O)O)CC1` [DOTA-MGS5, DOTA-DGlu-Ala-Tyr-Gly-Trp-(N-Me)Nle-Asp-1Nal-NH2, reference compound], the LogD in data set [3] is recorded as −2.0 ± 0.1. For the same compound, the EC50 on human CCK2R was 7.9 ± 1.9 nM.
